Data as given in the NIST ThermoML archive (doi:10.1021/je3012925).
± gives the expanded uncertainty stated by the source.

Columns and labels:
[1] = Liquid; for mass density: 293.15 K, 101.33 kPa, Vibrating tube method; for Normal boiling temperature: mercury-in-glass thermometers
[2] = refractive index (Na D-line) (dimensionless); details: 293.15 K; 101.33 kPa; Liquid; Standard Abbe refractometry

| mass density [1] | Normal boiling temperature [1] | refractive index [2] | SMILES |
| --- | --- | --- | --- |
| 817.6 ± 0.2 kg/m3 | 128.12 ± 0.2 °C | 1.4096 ± 0.0007 | CCC(C)CO (centres undefined) [2-methyl-1-butanol] |
| 873.5 ± 0.3 kg/m3 | 138.23 ± 0.2 °C | 1.4034 ± 0.0007 | CCC(C)COC(C)=O (centres undefined) [2-methylbutyl ethanoate] |
| 942.6 ± 0.3 kg/m3 | 153.06 ± 0.2 °C | 1.4328 ± 0.0007 | CN(C)C=O [dimethylformamide] |
